Columns and labels:
Assay in all cases: Bliss excess, mean over the matrix (fraction); higher = more synergy
[1] = tested on: TT2609-C02 (Thyroid Gland Carcinoma)
How it was run: (§1)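 After 24 hours at 37°C and 5% CO2 in 1536-well plates, cells in DMEM/F12 or RPMI plus 10% FBS received two-drug dose matrices for 72 hours. Viability came from CellTiter-Glo 2.0 luminescence and was scaled as inhibition, anchored at 0 by vehicle wells and at 1 by blank wells. Combination Emax is taken as the second-highest inhibition in the matrix, and Bliss excess as the observed combination effect less EA + EB − EA·EB, with EA and EB the single-agent effects.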

[2] = tested on: HCC1954 (Breast Carcinoma)
How it was run: as §1

[3] = tested on: KARPAS-422 (B-Cell Non-Hodgkin's Lymphoma)
How it was run: as §1

[4] = tested on: CCK-81 (Colorectal Carcinoma)
How it was run: as §1

[5] = tested on: TT (Thyroid Gland Carcinoma)
How it was run: as §1

NCI-H2591 (Mesothelioma) = tested on: NCI-H2591 (Mesothelioma)
How it was run: as §1

[6] = tested on: BICR22 (Oral Cavity Carcinoma)
How it was run: as §1

CAS-1 (Glioblastoma) = tested on: CAS-1 (Glioblastoma)
How it was run: as §1

[7] = tested on: SISO (Cervical Carcinoma)
How it was run: as §1

NY (Osteosarcoma) = tested on: NY (Osteosarcoma)
How it was run: as §1

8-MG-BA (Glioblastoma) = tested on: 8-MG-BA (Glioblastoma)
How it was run: as §1

[8] = tested on: COLO-824 (Breast Carcinoma)
How it was run: as §1

[9] = tested on: NCI-H1666 (Lung Adenocarcinoma)
How it was run: as §1

GI-ME-N (Neuroblastoma) = tested on: GI-ME-N (Neuroblastoma)
How it was run: as §1

[10] = tested on: SK-MES-1 (Squamous Cell Lung Carcinoma)
How it was run: as §1

LN-405 (Glioblastoma) = tested on: LN-405 (Glioblastoma)
How it was run: as §1

ARH-77 (Non-Cancerous) = tested on: ARH-77 (Non-Cancerous)
How it was run: as §1

A498 (Kidney Carcinoma) = tested on: A498 (Kidney Carcinoma)
How it was run: as §1

[11] = tested on: VCaP (Prostate Carcinoma)
How it was run: as §1

U-2-OS (Osteosarcoma) = tested on: U-2-OS (Osteosarcoma)
How it was run: as §1

Row | Structure (SMILES) | Bliss excess [1] | Bliss excess [2] | Bliss excess [3] | Bliss excess [4] | Bliss excess [5] | Bliss excess (NCI-H2591 (Mesothelioma)) | Bliss excess [6] | Bliss excess (CAS-1 (Glioblastoma)) | Bliss excess [7] | Bliss excess (NY (Osteosarcoma)) | Bliss excess (8-MG-BA (Glioblastoma)) | Bliss excess [8] | Bliss excess [9] | Bliss excess (GI-ME-N (Neuroblastoma)) | Bliss excess [10] | Bliss excess (LN-405 (Glioblastoma)) | Bliss excess (ARH-77 (Non-Cancerous)) | Bliss excess (A498 (Kidney Carcinoma)) | Bliss excess [11] | Bliss excess (U-2-OS (Osteosarcoma))
1 | Cc1c2c(nn1C)CSCc1cc(n(C)n1)CSc1cc(c3ccccc3c1)OCCCc1c(C(=O)O)n(C)c3c-2c(Cl)ccc13 [AZD5991] + Cn1cnc2c(F)c(Nc3ccc(Br)cc3Cl)c(C(=O)NOCCO)cc21 [Selumetinib] (first compound max 1 µM, 7x7, partner max 3 µM) | -0.0402 | 0.0333 | -0.0157 | 0.009 | -0.0526 | -0.0127 | 0.127 | -0.0036 | -0.0134 | -0.0312 | 0.098 | -0.0049 | 0.0499 | -0.06 | 0.0132 | 0.003 | -0.0069 | 0.0133 | -0.0213 | 0.0109
2 | Cc1c2c(nn1C)CSCc1cc(n(C)n1)CSc1cc(c3ccccc3c1)OCCCc1c(C(=O)O)n(C)c3c-2c(Cl)ccc13 [AZD5991] + C=CCn1c(=O)c2cnc(Nc3ccc(N4CCN(C)CC4)cc3)nc2n1-c1cccc(C(C)(C)O)n1 [AZD1775] (first compound max 1 µM, partner max 1 µM) | 0.0087 | 0.0435 | -0.0192 | -0.0116 | 0.007 | 0.0396 | -0.0107 | 0.0452 | -0.0417 | -0.0177 | -0.0123 | -0.0593 | 0.0037 | 0.0646 | -0.0183 | 0.0077 | -0.0418 | 0.0231 | -0.011 | 0.0183
3 | Cn1cnc2c(F)c(Nc3ccc(Br)cc3Cl)c(C(=O)NOCCO)cc21 [Selumetinib] + C[C@@H]1COCCN1C2=NC(=NC(=C2)C3(CC3)[S@](=N)(=O)C)C4=C5C=CNC5=NC=C4 [AZD6738] (first compound max 10 µM, 7x7, partner max 10 µM) | 0.0773 | -0.0327 | -0.0396 | 0.0233 | -0.0154 | 0.0292 | -0.0834 | -0.0163 | -0.0241 | 0.0613 | -0.0051 | -0.0111 | -0.0124 | -0.0028 | -0.025 | -0.0448 | 0.029 | -0.023 | -0.0602 | -0.0443
4 | Cc1cc2ncnn2cc1Nc1ncc2c(n1)n(C1CCOCC1)c(=O)n2C [AZD7648] + O=C(c1cc(Cc2n[nH]c(=O)c3ccccc23)ccc1F)N1CCN(C(=O)C2CC2)CC1 [Olaparib] (first compound max 10 µM, 7x7, partner max 10 µM) | -0.0276 | -0.045 | -0.0358 | -0.0546 | -0.0702 | -0.0403 | -0.0548 | -0.0909 | -0.0226 | -0.0311 | -0.0184 | -0.0115 | -0.0471 | -0.0382 | -0.0323 | -0.0421 | 0.0393 | -0.0268 | -0.0336 | -0.0136
5 | CN(CCO)CC[C@H](CSc1ccccc1)Nc1ccc(S(=O)(=O)NC(=O)c2ccc(N3CCC([C@@H](O)c4ccccc4-c4ccc(Cl)cc4)CC3)cc2)cc1S(=O)(=O)C(F)(F)F [AZD4320] + CN(C)CCCOc1ccc(-c2ccc3ncc4c(c3c2)n(C2CCOCC2)c(=O)n4C)cn1 [AZD0156] (first compound max 1 µM, 7x7, partner max 1 µM) | -0.0325 | 0.0526 | 0.0093 | -0.0009 | -0.0778 | -0.0508 | -0.0364 | -0.0328 | -0.0343 | -0.0432 | -0.0146 | 0.0031 | -0.0508 | -0.0454 | -0.005 | 0.0093 | -0.0283 | -0.0358 | -0.0185 | -0.0215
6 | CCN(CCO)CCCOc1ccc2c(Nc3cc(CC(=O)Nc4cccc(F)c4)[nH]n3)ncnc2c1 [AZD2811] + C[C@@H]1COCCN1C2=NC(=NC(=C2)C3(CC3)[S@](=N)(=O)C)C4=C5C=CNC5=NC=C4 [AZD6738] (first compound max 1 µM, 7x7, partner max 10 µM) | -0.0361 | -0.0263 | -0.0581 | -0.0388 | -0.0905 | -0.0338 | -0.059 | -0.0818 | 0.0006 | -0.0508 | -0.0212 | -0.0843 | -0.0633 | -0.0437 | -0.0484 | -0.0386 | 0.0254 | -0.0832 | -0.0864 | -0.0297
7 | C=CCn1c(=O)c2cnc(Nc3ccc(N4CCN(C)CC4)cc3)nc2n1-c1cccc(C(C)(C)O)n1 [AZD1775] + C[C@@H]1COCCN1C2=NC(=NC(=C2)C3(CC3)[S@](=N)(=O)C)C4=C5C=CNC5=NC=C4 [AZD6738] (first compound max 1 µM, partner max 10 µM) | -0.0026 | 0.111 | -0.0445 | -0.0359 | -0.0676 | -0.0355 | 0.0233 | -0.0535 | 0.0461 | -0.0386 | -0.032 | 0.0691 | 0.0189 | -0.0397 | -0.0223 | -0.0025 | 0.0324 | -0.0536 | 0.006 | 0.0364
